Measurements taken from patent US8912184B1, “Therapeutic and diagnostic methods” (Alzheimer's Institute of America, Inc., priority 2010, dated 2014).
Like-named read-outs stand apart in the source and are kept apart here.

Experiments:
[1] = Maximum tolerated dose in mice; conditions: nu/nu, mouse, in vivo, oral
cancer cell lines = experiment: Standard Cytotoxicity Assay for other cancer cell types (TC50, CellTiter-Glo); type: cell-based
Experimental: Approximately 24 hours later, test compound was added from serial dilutions prepared in DMSO from DMSO stock solutions.

What does the source list for `O=C(NCc1cccnc1)Nc1ccc(COc2ccccc2-c2ccccc2)cc1` [Exemplary Compound A, 1-{4-[(biphenyl-2-yloxy)methyl]phenyl}-3-(pyridin-3-ylmethyl)urea]?
MTD [1]: 75 mg/kg; CC50 (cancer cell lines; 72 h, DB (lymphoma), 3 DAY, read-out: TC50 (the source's name)): 3.5 nM; CC50 (cancer cell lines; 72 h, DEL cells (lymphoma), 3 day, read-out: Cmpd A 3 day TC50): 41 nM; CC50 (cancer cell lines; 72 h, MC/CAR cells (myeloma), 3 day, read-out: Cmpd A 3 day TC50): 8.2 nM; CC50 (cancer cell lines; 72 h, NAMALWA cells (lymphoma), 3 day, read-out: Cmpd A 3 day TC50): 0.85 nM; CC50 (cancer cell lines; Calu-6 cells (lung (NSCLC)), 3 day, read-out: Cmpd A 3 day TC50): 12 nM; CC50 (cancer cell lines; DU145 cells (prostate), 3 day, read-out: Cmpd A 3 day TC50): 3.8 nM; CC50 (cancer cell lines; Daudi cells (lymphoma), 3 day, read-out: Cmpd A 3 day TC50): < 0.8 nM; CC50 (cancer cell lines; Homo sapiens, 22Rv1, 72 h, 22RV1 cells (prostate), 3 day, read-out: Cmpd A 3 day TC50): 8.4 nM; CC50 (cancer cell lines; Homo sapiens, A 172, 72 h, A172 (glioma), 3 DAY, read-out: TC50 (the source's name)): 1.1 nM; CC50 (cancer cell lines; Homo sapiens, A498, 72 h, A498 cells (kidney), 3 day, read-out: Cmpd A 3 day TC50): 43 nM; CC50 (cancer cell lines; Homo sapiens, A2058, 72 h, A2058 cells (melanoma (lymph node metastasis)), 3 day, read-out: Cmpd A 3 day TC50): 3.4 nM; CC50 (cancer cell lines; Homo sapiens, ACHN, 72 h, ACHN cells (kidney), 3 day, read-out: Cmpd A 3 day TC50): 3.7 nM; CC50 (cancer cell lines; Homo sapiens, BT-20, 72 h, BT-20 cells (breast), 3 day, read-out: Cmpd A 3 day TC50): 13 nM; CC50 (cancer cell lines; Homo sapiens, BT-474, 168 h, BT-474 cells (breast), 7 day, read-out: Cmpd A 7 day TC50): 1.1 nM; CC50 (cancer cell lines; Homo sapiens, BXPC-3, 72 h, BxPC-3 cells (pancreas), 3 day, read-out: Cmpd A 3 day TC50): 11 nM; CC50 (cancer cell lines; Homo sapiens, CAMA-1, 72 h, CAMA-1 cells (breast), 3 day, read-out: Cmpd A 3 day TC50): 4.6 nM; CC50 (cancer cell lines; Homo sapiens, CCRF-CEM, 72 h, CCRF-CEM cells (lymphocytic leukemia), 3 day, read-out: Cmpd A 3 day TC50): 2 nM; CC50 (cancer cell lines; Homo sapiens, COLO 205, 72 h, COLO205 (colon), 3 DAY, read-out: TC50 (the source's name)): 0.5 nM; CC50 (cancer cell lines; Homo sapiens, COLO 205, 168 h, COLO205 (colon), 7 DAY, read-out: TC50 (the source's name)): 0.3 nM; CC50 (cancer cell lines; Homo sapiens, COLO 205, 168 h, COLO205 cells (colon), 7 day, read-out: Cmpd A 7 day TC50): 0.3 nM; CC50 (cancer cell lines; Homo sapiens, Calu-6, 72 h, Calu-6 cells (lung (NSCLC)), 3 day, read-out: Cmpd A 3 day TC50): 11 nM; CC50 (cancer cell lines; Homo sapiens, DBTRG-05MG, 72 h, DBTRG-05MG cells (brain; glioblastoma), 3 day, read-out: Cmpd A 3 day TC50): 19 nM; CC50 (cancer cell lines; Homo sapiens, DLD-1, 72 h, DLD-1 cells (colon), 3 day, read-out: Cmpd A 3 day TC50): 1.7 nM; CC50 (cancer cell lines; Homo sapiens, DMS-114, 72 h, DMS-114 (SCLC), 3 DAY, read-out: TC50 (the source's name)): 0.16 nM; CC50 (cancer cell lines; Homo sapiens, DU-145, 72 h, DU145 (prostate), 3 DAY, read-out: TC50 (the source's name)): 3.9 nM; CC50 (cancer cell lines; Homo sapiens, DU-145, 72 h, DU145 cells (prostate), 3 day, read-out: Cmpd A 3 day TC50): 3.9 nM; CC50 (cancer cell lines; Homo sapiens, DU-145, 168 h, DU145 (prostate), 7 DAY, read-out: TC50 (the source's name)): 2.7 nM; CC50 (cancer cell lines; Homo sapiens, DU-145, 168 h, DU145 cells (prostate), 7 day, read-out: Cmpd A 7 day TC50): 3 nM; CC50 (cancer cell lines; Homo sapiens, DU-4475, 72 h, DU4475 (breast), 3 DAY, read-out: TC50 (the source's name)): 0.1 nM; CC50 (cancer cell lines; Homo sapiens, DU-4475, 72 h, DU4475 cells (breast), 3 day, read-out: Cmpd A 3 day TC50): 0.1 nM; CC50 (cancer cell lines; Homo sapiens, DU-4475, 168 h, DU4475 (breast), 7 DAY, read-out: TC50 (the source's name)): 0.1 nM; CC50 (cancer cell lines; Homo sapiens, DU-4475, 168 h, DU4475 cells (breast), 7 day, read-out: Cmpd A 7 day TC50): 0.1 nM; CC50 (cancer cell lines; Homo sapiens, Daudi, 72 h, Daudi cells (lymphoma), 3 day, read-out: Cmpd A 3 day TC50): 1.4 nM; CC50 (cancer cell lines; Homo sapiens, EKVX, 72 h, EKVX cells (lung (NSCLC)), 3 day, read-out: Cmpd A 3 day TC50): 4 nM; CC50 (cancer cell lines; Homo sapiens, EKVX, 168 h, EKVX cells (lung (NSCLC)), 7 day, read-out: Cmpd A 7 day TC50): 1 nM; CC50 (cancer cell lines; Homo sapiens, H9, 72 h, H9 cells (lymphoma), 3 day, read-out: Cmpd A 3 day TC50): 3.2 nM; CC50 (cancer cell lines; Homo sapiens, HCC827, 72 h, HCC827 (NSCLC), 3 DAY, read-out: TC50 (the source's name)): 8 nM; CC50 (cancer cell lines; Homo sapiens, HCC827, 72 h, HCC827 cells (lung (NSCLC)), 3 day, read-out: Cmpd A 3 day TC50): 8 nM; CC50 (cancer cell lines; Homo sapiens, HCC827, 168 h, HCC827 (NSCLC), 7 DAY, read-out: TC50 (the source's name)): 1.5 nM; CC50 (cancer cell lines; Homo sapiens, HCC827, 168 h, HCC827 cells (lung (NSCLC)), 7 day, read-out: Cmpd A 7 day TC50): 1.5 nM; CC50 (cancer cell lines; Homo sapiens, HCC1937, 72 h, HCC1937 cells (breast), 3 day, read-out: Cmpd A 3 day TC50): 61 nM
